According to patent publication US7244727B2, “Fused bicyclic nitrogen-containing heterocycles” (Japan Tobacco Inc., priority 2002, dated 2007):
Where “and” joins values, the source holds several entries; their conditions need not be identical. Equal entries are not always repeated.

Tests used:
human DGAT1 = target: T1, human DGAT1 (Homo sapiens, UniProt O75907); assay: DGAT Scintillation Proximity Assay (SPA) with membranes of insect cells expressing human flagtag DGAT1; format: biochemical; conditions: read-out: hDGAT1 IC50
T1 construct: made in house; host or cells: insect cells (sf9, sf21 or High Five) infected with baculovirus; total cell membranes
T1 sequence (O75907 1-488): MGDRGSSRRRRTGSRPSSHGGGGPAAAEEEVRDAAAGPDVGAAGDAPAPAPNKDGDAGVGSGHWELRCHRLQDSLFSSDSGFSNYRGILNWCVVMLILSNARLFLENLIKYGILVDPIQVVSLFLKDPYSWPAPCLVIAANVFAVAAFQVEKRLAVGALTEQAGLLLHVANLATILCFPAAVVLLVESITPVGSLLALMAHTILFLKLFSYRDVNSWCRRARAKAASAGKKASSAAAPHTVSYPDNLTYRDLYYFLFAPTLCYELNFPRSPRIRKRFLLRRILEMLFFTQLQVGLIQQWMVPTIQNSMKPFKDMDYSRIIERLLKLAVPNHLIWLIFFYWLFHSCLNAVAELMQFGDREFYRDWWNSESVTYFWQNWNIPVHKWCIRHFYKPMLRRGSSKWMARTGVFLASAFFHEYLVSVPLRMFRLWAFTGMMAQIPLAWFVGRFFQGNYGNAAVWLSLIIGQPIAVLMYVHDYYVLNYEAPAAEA
Method in brief: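 Membranes (0.2 μg/well) from insect cells expressing human flag-tagged DGAT1 incubated with 10 μM compound and 200 μM dioleoyl glycerol substrate; mercuric chloride as inhibition control. Reaction stopped with WGA SPA beads in mercuric chloride, overnight bead coupling, then scintillation proximity signal read.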

Row | SMILES | IC50 (human DGAT1) [nM] | melting point
1 | CC1(C)Oc2ncnc(N)c2N=C1c1ccc([C@H]2CC[C@H](Cc3cnc(C4CC4)[nH]3)CC2)cc1 [Example 2-120] | 10 to 100 | 226 to 227 °C
2 | Cc1nc(N)c2c(n1)OC(C)(C)C(c1ccc([C@H]3CC[C@H](CCNC(=O)C(C)(C)O)CC3)cc1)=N2 [Example 2-141] | 10 to 100 | 221 to 223 °C
3 | CN(C(=O)CO)[C@H]1CC[C@H](c2ccc(C3=Nc4c(N)ncnc4OC3(C)C)cc2)CC1 [Example 2-105] | 10 to 100 | > 250 °C
4 | Cc1csc(NC[C@H]2CC[C@H](c3ccc(C4=Nc5c(N)ncnc5OC4(C)C)cc3)CC2)n1 [Example 2-127] | 10 to 100 | 228 to 230 °C
5 | CC1(C)Oc2ncnc(N)c2N=C1c1ccc([C@H]2CC[C@H](CN3CC(=O)NC3=O)CC2)cc1 [Example 2-70] | 10 to 100 | 212 to 214 °C
6 | COc1ccc(C2Nc3c(N)ncnc3OC2(C)C)cc1 (stereo not shown) [Example 2-24] | > 100 | 225 to 226 °C
7 | CC(C)NC[C@H]1CC[C@H](c2ccc(C3=Nc4c(N)ncnc4OC3(C)C)cc2)CC1 [Example 2-114] | 10 to 100 | 250 °C
8 | CC1(C)Oc2ncnc(N)c2N=C1c1ccc([C@H]2CC[C@H](CCN3CCN(Cc4ccccc4)CC3)CC2)cc1 [Example 2-88] | > 100 | 175 to 176 °C
9 | CC(=O)NC[C@H]1CC[C@H](c2ccc(C3=Nc4c(N)ncnc4OC3(C)C)cc2)CC1 [Example 2-128] | 10 to 100 | 253 to 254 °C
10 | CC1(C)Oc2ncnc(N)c2NC1c1ccc(-c2ccc(CC(=O)O)cc2)cc1 (stereo not shown) [Example 2-54] | 10 to 100 | 267 °C (dec.)
11 | CC(C)(C)OC(=O)CNC(=O)C=C1CCC(c2ccc(C3=Nc4c(N)ncnc4OC3(C)C)cc2)CC1 (stereo not shown) [Example 2-52] | 10 to 100 | 212 to 215 °C
12 | Cc1ccc(C2=Nc3c(N)ncnc3OC2)cc1 [Example 1-4] | > 100 | 217 to 219 °C
13 | CC1(C)Oc2ncnc(N)c2N=C1c1ccc2c(c1)CCCC2 [Example 2-66] | > 100 | 176 to 177 °C
14 | O=c1[nH]c2ncnc3c2n1C(c1ccc(Br)cc1)CO3 (stereo not shown) [Example 1-35] | > 100 | > 220 °C
15 | CCCCc1ccc(C2=Nc3c(N)ncnc3OC2)cc1 [Example 1-21] | > 100 | 183 to 186 °C
16 | CC1(C)Oc2nccc(N)c2N=C1c1ccc([C@H]2CC[C@H](CC(=O)O)CC2)cc1 [Example 2-117] | 10 to 100 | > 250 °C
17 | Cc1nc(N)c2c(n1)OC(C)(C)C(c1ccc([C@H]3CC[C@H](CC(=O)N(C)CC(=O)O)CC3)cc1)=N2 [Example 2-143] | < 10 | 196 to 198 °C
18 | CC1(C)Oc2ncnc(N)c2N=C1c1ccc([C@H]2CC[C@H](CCC(N)=O)CC2)cc1 [Example 2-5] | 10 to 100 | 244 to 246 °C
19 | CC1(C)Oc2ncnc(N)c2NC1c1ccc(F)cc1 (stereo not shown) [Example 2-21] | > 100 | > 230 °C
20 | Cc1ncc(C[C@H]2CC[C@H](c3ccc(C4=Nc5c(N)ncnc5OC4(C)C)cc3)CC2)[nH]1 [Example 2-113] | 10 to 100 | 172 to 173 °C
21 | CCN(CC)c1ccc(C2=Nc3c(N)ncnc3OC2)cc1 [Example 1-6] | > 100 | 206 °C (dec.)
22 | CC1(C)Oc2ncnc3[nH]c(=O)n(c23)C1c1ccc(Br)cc1 (stereo not shown) [Example 2-11] | > 100 | > 220 °C
23 | Nc1ncnc2c1N=C(C1CCCCC1)CO2 [Example 1-22] | > 100 | 142 °C
24 | Cc1nc(N)c2c(n1)OC(C)(C)C(c1ccc([C@H]3CC[C@H](CNC(=O)CO)CC3)cc1)=N2 [Example 2-138] | 10 to 100 | 235 to 238 °C
25 | CCCNC(=O)C[C@H]1CC[C@H](c2ccc(C3=Nc4c(N)ncnc4OC3(C)C)cc2)CC1 [Example 2-102] | 10 to 100 | 214 to 215 °C
26 | CC1(C)Oc2ncnc(N)c2N=C1c1ccc(-c2cccnc2)cc1 [Example 2-29] | > 100 | 231 to 232 °C
27 | CC(C)(NC(=O)C[C@H]1CC[C@H](c2ccc(C3=Nc4c(N)ncnc4OC3(C)C)cc2)CC1)C(=O)O [Example 2-65] | < 10 | 243 to 244 °C

More lines, now with the values ahead:

Row | IC50 (human DGAT1) [nM] | melting point | SMILES
28 | < 10 | > 250 °C | CCNC(=O)NC[C@H]1CC[C@H](c2ccc(C3=Nc4c(N)nc(C)nc4OC3(C)C)cc2Cl)CC1 [Example 6-13]
29 | > 100 | > 250 °C | CC1(C)Oc2ncnc(N)c2NC1c1ccc([C@H]2CC[C@H](NS(N)(=O)=O)CC2)cc1 (stereo partly shown) [Example 2-222]
30 | > 100 | 191 to 196 °C | CC1(C)Oc2ncnc(N)c2N=C1c1ccc(N2CCCC2)cc1 [Example 4-6]
31 | 10 to 100 | 225 to 226 °C | Cc1nc(N)c2c(n1)OC(C)(C)C(c1ccc([C@H]3CC[C@H](CN4CCCC(O)C4=O)CC3)c(Cl)c1)=N2 (stereo partly shown) [Example 6-19]
32 | 10 to 100 | 148 °C (dec.) | Cc1nc(N)c2c(n1)OC(C)(C)C(c1ccc([C@H]3CC[C@H](CN4CC(=O)NC4=O)CC3)cc1)=N2 [Example 2-159]
33 | 10 to 100 | > 230 °C | Cc1nc(N)c2c(n1)OC(C)(C)C(c1ccc([C@H]3CC[C@H](Cc4n[nH]c(=O)[nH]4)CC3)cc1)=N2 [Example 2-147]
34 | 10 to 100 | 193 to 194 °C | Cc1ncc(CC[C@H]2CC[C@H](c3ccc(C4=Nc5c(N)ncnc5OC4(C)C)cc3)CC2)[nH]1 [Example 2-185]
35 | 10 to 100 | > 250 °C | Cc1nc(N)c2c(n1)OC(C)(C)C(c1ccc(C3CC(CC(=O)O)C3(C)C)cc1)=N2 (stereo not shown) [Example 2-145]
36 | 10 to 100 | 202 to 203 °C | CC(=O)N1CCN(C[C@H]2CC[C@H](c3ccc(C4=Nc5c(N)ncnc5OC4(C)C)cc3)CC2)CC1 [Example 2-249]
37 | 10 to 100 | 250 °C (dec.) | Cc1nc(N)c2c(n1)OC(C)(C)C(c1ccc([C@H]3CC[C@H](CCc4nc(=O)o[nH]4)CC3)cc1)=N2 [Example 2-195]
38 | > 100 | 177 °C (dec.) | Cc1nc(N)c2c(n1)OC(C)(C)C(c1ccc([C@H]3CC[C@H](CC(=O)O)CC3)c(N3CCCC3=O)c1)=N2 [Example 6-4]
39 | 10 to 100 | 208 to 209 °C | CC1(C)Oc2ncnc(N)c2N=C1c1ccc([C@H]2CC[C@H](CN3CCNCC3)CC2)cc1 [Example 2-244]
40 | 10 to 100 | 205 to 206 °C | CC1(C)Oc2ncnc(N)c2N=C1c1ccc([C@H]2CC[C@H](CN3CCN(C(=O)CO)CC3)CC2)cc1 [Example 2-247]
41 | > 100 | 174 to 175 °C | CCOC(=O)N1CCN(c2ccc(C3=Nc4c(N)ncnc4OC3(C)C)cc2)CC1 [Example 4-5]
42 | 10 to 100 | 188 to 190 °C and 188.8 to 190.9 °C | CC1(C)Oc2ncnc(N)c2N=C1c1ccc(C2CCN(C(=O)C(=O)O)CC2)cc1 [Example 3]
43 | 10 to 100 | 200 to 201 °C | CN(C)C(=O)CC[C@H]1CC[C@H](c2ccc(C3=Nc4c(N)ncnc4OC3(C)C)cc2)CC1 [Example 2-186]
44 | 10 to 100 | > 250 °C | CC(=O)N[C@H]1CC[C@H](c2ccc(C3=Nc4c(N)ncnc4OC3(C)C)cc2)CC1 [Example 2-209]
45 | 10 to 100 | > 250 °C | CC1(C)Oc2ncnc(N)c2N=C1c1ccc([C@H]2CC[C@H](C(=O)NC(CO)C(=O)O)CC2)cc1 (stereo partly shown) [Example 2-213]
46 | < 10 | > 250 °C | Cc1nc(N)c2c(n1)OC(C)(C)C(c1ccc([C@H]3CC[C@H](CCC(=O)O)CC3)cc1)=N2 [Example 2-191]
47 | < 10 | 206 to 208 °C | CC(C)NC(=O)CC[C@H]1CC[C@H](c2ccc(C3=Nc4c(N)ncnc4OC3(C)C)cc2)CC1 [Example 2-187]
48 | 10 to 100 | 209 to 211 °C | CCNS(=O)(=O)C[C@H]1CC[C@H](c2ccc(C3=Nc4c(N)ncnc4OC3(C)C)cc2)CC1 [Example 2-252]
49 | > 100 | 169 to 171 °C | CC1(C)Oc2ncnc(N)c2N=C1c1ccc([C@H]2CC[C@H](CN3CCCCC3)CC2)cc1 [Example 2-224]
50 | 10 to 100 | 225 to 227 °C | CC1(C)Oc2ncnc(N)c2N=C1c1ccc([C@H]2CC[C@H](CN3C(=O)c4ccccc4C3=O)CC2)cc1 [Example 2-217]
51 | 10 to 100 | 271 to 277 °C | Cc1nc(N)c2c(n1)OC(C)(C)C(c1ccc([C@H]3CC[C@H](CSCC(=O)O)CC3)cc1)=N2 [Example 2-259]
52 | < 10 | 171 to 173 °C | Cc1nc(N)c2c(n1)OC(C)(C)C(c1ccc([C@H]3CC[C@H](Cc4cc(O)[nH]n4)CC3)c(Cl)c1)=N2 [Example 6-12]
53 | 10 to 100 | 211 °C (dec.) | Cc1nc(N)c2c(n1)OC(C)(C)C(c1ccc([C@H]3CC[C@H](CCc4nc(=O)s[nH]4)CC3)cc1)=N2 [Example 2-196]
